Assay results from US6869930B1, “Acylated insulin” (priority 1993, dated 2005).

Tests used:
[1] = Lipophilicity relative to human insulin, k′rel, by isocratic RP-HPLC (LiChrosorb RP18); type: physicochemical; conditions: pH 7.3
Description: The elution was monitored by following the UV absorption of the eluate at 214 nm. Void time, t0, was found by injecting 0.1 mM sodium nitrate.

[2] = test system: rabbits; test: Single day retardation test: prolongation of the blood glucose lowering effect in rabbits; type: in vivo
Description: The degree of prolongation of the blood glucose lowering effect was studied in rabbits. Each insulin derivative was tested by subcutaneous injection of 12 nmol thereof in, each of six rabbits in the single day retardation test. Blood sampling for glucose analysis was performed before injection and at 1, 2, 4 and 6 hours after injection. The glucose values found are expressed as percent of initial values.

Row | Substance | lipophilicity relative to human insulin, k′rel [1] | Relative Lipophilicity [1] | Blood glucose, % of initial 1 h ([2]; 12 nmol subcutaneous, 1 h after injection, 3 Zn^2+/insulin hexamer except where Zn-free) | Blood glucose, % of initial 2 h ([2]; 12 nmol subcutaneous, 2 h after injection, 3 Zn^2+/insulin hexamer except where Zn-free) | Blood glucose, % of initial 4 h ([2]; 12 nmol subcutaneous, 4 h after injection, 3 Zn^2+/insulin hexamer except where Zn-free) | Blood glucose, % of initial 6 h ([2]; 12 nmol subcutaneous, 6 h after injection, 3 Zn^2+/insulin hexamer except where Zn-free) | Index of protraction ([2]; calculated from blood glucose values, scaled: 100 = bovine ultralente insulin, 0 = Actrapid insulin)
1 | Lys^B29(N^ε-[N^α-tetradecanoyl Aad(−)-OH]) des(B30) Human Insulin [Example 42] | 21 | – | – | – | – | – | –
2 | Lys^B29(N^ε-[N^α-tetradecanoyl-γ-carboxy-Glu-]) des(B30) Human Insulin [Example 43] | 10 | – | – | – | – | – | –
3 | N^εB29-lithocholoyl insulin [N^εB29-lithocholoyl insulin (Zn-free)] | – | 51.6 | 98.3 % of initial | 92.3 % of initial | 100.5 % of initial | 93.4 % of initial | 115
